# From BindingDB's records for doi:10.7270/Q2J964TC (Burnham Center for Chemical Genomics, 2010)
# Molecular target: T1, Mannose-6-phosphate isomerase (Homo sapiens, UniProt P34949)
# T1 sequence (P34949 whole entry): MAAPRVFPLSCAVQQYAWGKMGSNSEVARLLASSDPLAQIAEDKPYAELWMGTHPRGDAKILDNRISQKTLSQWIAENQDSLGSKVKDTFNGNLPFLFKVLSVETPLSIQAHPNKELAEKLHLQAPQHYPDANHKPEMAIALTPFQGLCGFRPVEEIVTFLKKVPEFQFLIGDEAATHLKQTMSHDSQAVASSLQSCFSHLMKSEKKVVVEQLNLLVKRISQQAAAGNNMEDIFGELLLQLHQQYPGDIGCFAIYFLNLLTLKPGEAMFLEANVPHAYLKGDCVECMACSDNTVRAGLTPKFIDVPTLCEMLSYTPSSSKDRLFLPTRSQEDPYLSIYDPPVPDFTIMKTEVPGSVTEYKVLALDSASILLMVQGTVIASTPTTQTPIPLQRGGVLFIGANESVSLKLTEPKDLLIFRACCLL
# Experiment: phosphomannose isomerase inhibition – biochemical, fluorescence intensity, confirmation (AID 1535)
smiles,measurement,value
Oc1c(-c2ccccc2)sc2ccccc12 [2-phenyl-1-benzothiophen-3-one],IC50,> 100 µM
